Where a name gives a salt, the structure may show the parent alone.

These results are taken from US6410547B1, “Phenylpyridine derivatives useful as phosphodiesterase inhibitors” (Novartis AG, priority 1996, dated 2002).

The term melting point denotes the temperature of the solid-liquid transition. The compound `COc1ccc(-c2ccc(C(=O)O)c(C)c2)cc1-c1cccc([N+](=O)[O-])c1` [Example 20, 4′-Methoxy-3-methyl-3′-(3-nitrophenyl)-[1,1′-biphenyl]-4-carboxylic acid] returned a melting point of 278 to 281 °C.

In the case of `COc1ccc(-c2cccc(C(N)=O)c2)cc1-c1cccc([N+](=O)[O-])c1` [Example 25, 4′-Methoxy-3′-(3-nitrophenyl)-[1,1′-biphenyl]-3-carboxamide], the melting point lay within 118 to 120 °C.

As to `CNC(=O)c1ccc(-c2ccc(OC)c(-c3cccc([N+](=O)[O-])c3)c2)cc1` [Example 27, N-Methyl-4′-methoxy-3′-(3-nitrophenyl)-[1,1′-biphenyl]-4-carboxamide], the melting point fell in the range of 171 to 172 °C.

`COc1ccc(-c2ccc(C(=O)O)cc2)cc1-c1cccc(Cl)c1` [Example 22, 4′-Methoxy-3′-(3-chlorophenyl)-[1,1′-biphenyl]-4-carboxylic acid]: the melting point lay within 250 to 252 °C.

Turning to `COc1ccc(-c2cccc(C(=O)O)c2)cc1-c1cccc([N+](=O)[O-])c1` [Example 19, 4′-Methoxy-3′-(3-nitrophenyl)-[1,1′-biphenyl]-3-carboxylic acid], the melting point was 223 to 228 °C.

In turn, `COc1ccc(-c2ccc(C(N)=O)cc2)cc1-c1cccc([N+](=O)[O-])c1` [Example 24, 4′-Methoxy-3′-(3-nitrophenyl)-[1,1′-biphenyl]-4-carboxamide] yielded a melting point of 201 to 205 °C.

In turn, `COc1ccc(-c2ccc(C(=O)OCC(C)(C)C)cc2)cc1-c1ccc2nonc2c1` [Example 17, 3′-(5-Benzofurazanyl)-4′-methoxy-[1,1′-biphenyl]-4-carboxylic acid, 2,2-dimethylpropyl ester] showed a melting point of 131 to 136 °C.

In turn, `CCOC(=O)c1ccc(-c2ccc(OC)c(-c3ccc4nonc4c3)c2)cc1` [Example 16, 3′-(5-Benzofurazanyl)-4′-methoxy-[1,1′-biphenyl]-4-carboxylic acid, ethyl ester] had a melting point of 166 to 168 °C.

Compound `COc1ccc(-c2ccncc2)cc1-c1cccc(Cl)c1` (as salt: hydrochloride) [Example 7, 4-[2-(Methoxy)-3′-(chloro)biphenyl-5-yl]pyridine] displayed a melting point of 156 to 210 °C.

The compound `COc1ccc(-c2ccncc2)cc1-c1cccc(Oc2ccccc2)c1` (as salt: hydrochloride) [Example 9, 4-[2-(Methoxy)-3′-(phenoxy)biphenyl-5-yl]pyridine] had a melting point of 184 to 204 °C.

Consider `COc1ccc(-c2ccc3nccn3c2)cc1-c1ccc2nonc2c1` [Example 28, 6-[4-Methoxy-3-(5-benzofurazanyl)phenyl]imidazo[1,2-a]pyridine], for which the melting point was in the range of 190 to 196 °C.

Regarding `COc1ccc(-c2ccncc2)cc1-c1ccc(F)c(Cl)c1` (as salt: hydrochloride) [Example 11, 4-[2-(Methoxy)-3′-(chloro)4′-(fluoro)biphenyl-5-yl]pyridine], the melting point turned out to be 115 °C.

`COc1ccc(-c2ccncc2)cc1-c1ccc2nonc2c1` [Example 5, 4-[4-Methoxy-3-(5-benzofurazanyl)phenyl]pyridine] returned a melting point of 187 to 192 °C.

On to `COc1ccc(-c2ccc(C(=O)O)cc2)cc1-c1cccc(C#N)c1` [Example 23, 4′-Methoxy-3′-(3-cyanophenyl)-[1,1′-biphenyl]-4-carboxylic acid], for which the melting point fell in the range of 280 to 285 °C.

Take `COc1ccc(-c2ccc(C(N)=O)c(C)c2)cc1-c1cccc([N+](=O)[O-])c1` [Example 26, 4′-Methoxy-3-methyl-3′-(3-nitrophenyl)-[1,1′-biphenyl]-4-carboxamide]: the melting point was in the range of 179 to 184 °C.

`CCOC(=O)c1ccc(-c2ccc(OC)c(-c3cccc([N+](=O)[O-])c3)c2)cc1C` [Example 15, 4′-Methoxy-3-methyl-3′-(3-nitrophenyl)-[1,1′-biphenyl]-4-carboxylic acid, ethyl ester]: the melting point lay in the range of 88 to 90 °C.

`CCOC(=O)c1cccc(-c2ccc(OC)c(-c3cccc([N+](=O)[O-])c3)c2)c1` [Example 14, 4′-Methoxy-3′-(3-nitrophenyl)-[1,1′-biphenyl]-3-carboxylic acid, ethyl ester] yielded a melting point of 87 to 89 °C.

Take `CCOC(=O)c1ccc(-c2ccc(OC)c(-c3cccc([N+](=O)[O-])c3)c2)cc1` [Example 13, 4′-Methoxy-3′-(3-nitrophenyl)-[1,1′-biphenyl]-4-carboxylic acid, ethyl ester]: the melting point was 106 to 108 °C.

On to `COc1ccc(-c2ccncc2)cc1-c1ccc(Oc2ccccc2)cc1` (as salt: hydrochloride) [Example 10, 4-[2-(Methoxy)4′-(phenoxy)biphenyl-5-yl]pyridine], for which the melting point is 173 to 218 °C.

Take `COc1ccc(-c2ccc(C(=O)O)cc2)cc1-c1ccc2nonc2c1` [Example 21, 3′-(5-Benzofurazanyl)-4′-methoxy-[1,1′-biphenyl]-4-carboxylic acid]: the melting point is more than 300 °C.
